In PMC8386128, “Evaluation of Short-Chain Antimicrobial Peptides With Combined Antimicrobial and Anti-inflammatory Bioactivities for the Treatment of Zoonotic Skin Pathogens From Canines” (Frontiers in Microbiology, 2021):
Where two headings read alike, the source gives them in different places.

How the values were obtained:
[1] = tested on: S. pseudintermedius MW767056; assay: Bacteriolysis analysis (culture turbidity at 600 nm); format: cell-based, Staphylococcus pseudintermedius; conditions: 4× MIC, result in words
[2] = tested on: S. pseudintermedius MW767056; assay: Calcein leakage analysis (membrane permeabilization); format: cell-based, Staphylococcus pseudintermedius; conditions: 10× MIC, up to 1 h, triplicate, two independent experiments
TNF-α = assay: Western blotting of TNF-α in infected mouse skin; format: in vivo, BALB/c mice; conditions: day 1, vs saline-treated group, normalized to β-actin, n = 3
Method: To examine the expression of IL-6 and TNF-α at the protein level, immunoblotting was performed as reported previously ([Tang et al., 2017]). Proteins from dorsal skin tissues were extracted for Western blotting assays. Primary antibodies included anti-IL-6 (1:1,000, Abcam, Waltham, MA, United States) and anti-TNF-α (1:1,000, Abcam, United States). To verify equal sample loading, the membrane was incubated with rabbit polyclonal anti-β-actin antibody (1:1,000, Abcam, United States) as an internal control. Horseradish peroxidase-conjugated goat anti-rabbit IgG (1:5000, Abcam, United States) was used as the secondary antibody. The membranes were exposed under a chemiluminescent imaging analysis system (GE Healthcare Life Science, Danderyd, Sweden). Samples not treated with primary antibodies were considered negative controls. Relative levels of each protein were normalized to those of β-actin in each sample.

[3] = tested on: Staphylococcus pseudintermedius MW767056; conditions: peptide constant at 1/4 × MIC, 1 × 10^5 CFU/ml, triplicate
[4] = tested on: Staphylococcus cohnii MW767053; conditions: peptide constant at 1/4 × MIC, 1 × 10^5 CFU/ml, triplicate
[5] = tested on: S. pseudintermedius MW767056 skin infection; assay: Mouse skin infection (abrasion) model; conditions: topical 50 μl at 6× MIC daily, n = 5; for bacterial counts of infected skin tissue: inoculum 5 × 10^6 CFU, mean
[6] = in combination with Allomyrinasin

## CC1(C)S[C@@H]2[C@H](NC(=O)[C@H](N)c3ccc(O)cc3)C(=O)N2[C@H]1C(=O)O [Amoxicillin, amoxicillin]
[1]
  variation in culture turbidity (OD600) over 10 h: not recorded
[2]
  calcein leakage (decrease in fluorescence intensity): no obvious disruptive reaction
TNF-α
  expression level of TNF-α protein in infected skin: decreased
[3]; [6]
  FIC index: 0.281
[3]; in combination with Andricin B
  FIC index: indifferent interaction
[4]; [6]
  FIC index: 0.3125
[4]; in combination with Andricin B
  FIC index: 0.50
[5]; day 1
  bacterial counts of infected skin tissue: 5.94 log10 CFU/g
  bacterial load in the liver: No bacterial load was detected
[5]; day 3
  bacterial counts of infected skin tissue: 3.58 log10 CFU/g
  S. pseudintermedius infection in the liver: completely prevented
